Experimental data from patent publication US5594019A, “6-heterocyclic-4-amino-1,3,4,5-tetrahydrobenz[CD]indoles” (Eli Lilly and Company, priority 1994, dated 1997).
Where two headings read alike, the source gives them in different places.

Legend:
5-HT1A receptor = target: T1, 5-HT1A receptor (Rattus norvegicus, UniProt P19327); test: In vitro binding at the 5-HT1A receptor, inhibition of [3H]8-OH-DPAT binding to hippocampal membranes; parameters: species or system male Sprague-Dawley rats; conditions: [3H]8-OH-DPAT (1.0 nM), 10 minutes at 37° C., pH 7.4
T1 construct: the brains were rapidly chilled and dissected to obtain the hippocampi; from tissue; host or cells: hippocampus of male Sprague-Dawley rats (membranes)
T1 sequence (P19327 1-422): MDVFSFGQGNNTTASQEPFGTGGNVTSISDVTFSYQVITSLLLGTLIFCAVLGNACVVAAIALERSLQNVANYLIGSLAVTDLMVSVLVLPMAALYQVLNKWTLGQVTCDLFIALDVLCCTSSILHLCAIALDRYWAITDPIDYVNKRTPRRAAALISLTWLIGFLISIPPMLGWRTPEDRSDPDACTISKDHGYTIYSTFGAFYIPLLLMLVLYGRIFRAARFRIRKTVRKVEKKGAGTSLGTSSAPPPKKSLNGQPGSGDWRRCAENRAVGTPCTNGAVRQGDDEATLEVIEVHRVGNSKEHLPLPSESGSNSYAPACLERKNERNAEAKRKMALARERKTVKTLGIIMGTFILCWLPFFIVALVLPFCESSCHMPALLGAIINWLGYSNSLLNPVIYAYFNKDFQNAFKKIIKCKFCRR
Procedure: The affinities of certain of the compounds of Formula 1 at the central 5-HT1A receptors were determined using a modification of the binding assay described by Taylor, et al., J. Pharmacol. Exp. Ther., 236, 118-125 (1986). Membranes for the binding assay were prepared from male Sprague-Dawley rats (150-250 g). The animals were killed by decapitation, and the brains were rapidly chilled and dissected to obtain the hippocampi. Membranes from the hippocampi were either prepared that day, or the hippocampi were stored frozen (-70° C.) until the day of preparation. The membranes were prepared by homogenizing the tissue in 40 volumes of ice-cold Tris-HCl buffer (50 mM, pH 7.4 at 22° C.) using a Techmar Tissumizer (setting 65 for 15 seconds), and the homogenate was centrifuged at 39800xg for 10 minutes. The resulting pellet was then resuspended in the same buffer, and the centrifugation and resuspension process was repeated three additional times to wash the membranes. Between the second and third washes the resuspended membranes were incubated for 10 minutes at 37° C. to facilitate the removal of endogenous ligands. The final pellet was resuspended in 67 mM Tris-HCl, pH 7.4, to a concentration of 2 mg of tissue original wet weight/200 μl. This homogenate was stored frozen (-70° C.) until the day of the binding assay. […] The assay tubes were incubated for 10 minutes at 37° C., and the contents were then rapidly filtered through GF/B filters (pretreated with 0.5% polyethylenimine), tollowed by four 1 ml washes with ice-cold buffer. The radioactivity trapped by the filters was quantitated by liquid scintillation spectometry, and specific [^3 H]8-OH-DPAT binding to the 5-HT1A sites was defined as the difference between [^3 H]8-OH-DPAT bound in the presence and absence of 10 μM 5-HT.
In Table 1, the first column provides the example number of the compound evaluated while the second column provides the amount of test compound (expressed in nanomolar concentration) required to inhibit the binding of [^3 H]8-OH-DPAT by 50% (indicated as IC50).

5-HT1D receptor = target: T2, 5-HT1D receptor (Bos taurus, UniProt F1MGM3); test: In vitro binding activity at the 5-HT1D receptor, inhibition of [3H]5-HT binding to caudate nuclei membranes; conditions: [3H]5-HT (1.7-1.9 nM), bovine caudate membranes, 8-OH-DPAT and mesulergine 100 nM masking, 10 minutes at 37° C., pH 7.4
T2 construct: Bovine brains were obtained and the caudate nuclei were dissected out; from tissue; host or cells: bovine caudate nuclei (membranes)
T2 sequence (F1MGM3 1-403): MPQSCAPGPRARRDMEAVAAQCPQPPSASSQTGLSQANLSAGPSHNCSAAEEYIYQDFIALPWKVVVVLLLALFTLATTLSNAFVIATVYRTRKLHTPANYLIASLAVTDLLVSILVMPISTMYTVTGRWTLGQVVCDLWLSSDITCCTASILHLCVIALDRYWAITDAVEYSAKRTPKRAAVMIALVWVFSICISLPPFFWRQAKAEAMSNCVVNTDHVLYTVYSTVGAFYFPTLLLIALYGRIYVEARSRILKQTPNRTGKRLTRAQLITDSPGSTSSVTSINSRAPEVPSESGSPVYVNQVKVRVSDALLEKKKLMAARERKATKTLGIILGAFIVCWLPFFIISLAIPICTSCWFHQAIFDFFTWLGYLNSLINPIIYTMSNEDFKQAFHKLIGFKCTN
Procedure: The affinities of certin of the compounds of Formula 1 at the central 5-HT1D binding sites were determined using a modification of the binding assay described by Heuring and Peroutka, J. Neurosci., 7, 894 (1987). Bovine brains were obtained and the caudate nuclei were dissected out and frozen at -70° C. until the time that the membranes were prepared for the binding assays. At that time the tissues were homogenized in 40 volumes of ice-cold Tris-HCl buffer (50 mM, pH 7.4 at 22° C.) with a Techmar Tissumizer (setting 65 for 15 seconds), and the homogenate was centrifuged at 39,800xg for 10 minutes. The resulting pellet was then resuspended in the same buffer, and the centrifugation and resuspension process was repeated three additional times to wash the membranes. Between the second and third washes the resuspended membranes were incubated for 10 minutes at 37° C. to facilitate the removal of endogenous 5-HT. The final pellet was resuspended in Tris buffer to a concentration of 25 mg of original tissue wet weight/ml for use in the binding assay. […] The assay tubes were incubated for 10 minutes at 37° C., and the contents were then rapidly filtered through GF/B filters (pretreated with 0.5% polyethylenimine), followed by four 1 ml washes with ice-cold buffer. The radioactivity trapped by the filters was quantitated by liquid scintillation spectrometry, and specific [^3 H]5-HT binding to the 5-HT1D sites was defined as the difference between [^3 H]5-HT bound in the presence and absence of […] 5-HT.
In Table 2, the first column provides the example number of the compound evaluated while the second column provides the amount of test compound (expressed in nanomolar concentration) required to inhibit the binding of [^3 H]5-HT by 50% (indicated as IC50).

[1] = tested on: serotonin metabolite 5-hydroxyindole acetic acid (5HIAA); test: Effect on serotonin turnover in vivo, decrease of 5HIAA concentration in whole brain; parameters: species or system Male albino rats; conditions: Rattus norvegicus, 1 h, rats, whole brain 5HIAA, one hour after dosing (generally a 15-20% decrease)
Procedure: In another experiment certain compounds of Formula 1 were evaluated to determine ability to affect serotonin turnover in vivo. As a measure of such affect on serotonin turnover, the decrease of the serotonin metabolite 5-hydroxyindole acetic acid (5HIAA) was measured. The following protocol was employed.
Male albino rats were injected either subcutaneously or orally with an aqueous solution of the compound tested. The pH of the solution was adjusted as necessary to solubilize the compound. A control of the solution without the test compound was similarly administered to a control animal. The rats were decapitated one hour later. The whole brain was then removed and frozen on dry ice for storage prior to analysis. 5-Hydroxyindole acetic acid (5HIAA) concentration in whole brain was measured by liquid chromatography with electrochemical detection as reported by Fuller and Perry, "Effects of Buspirone and its Metabolite, 1-(2-pyrimidinyi)piperazine, on Brain Monoamines and Their Metabolites in Rats", J. Pharmacol. Ext. Ther., 248, p. 50-56 (1989), incorporated herein by reference.
In Table III, Column 1 provides the Example No. of the compound tested while Column 2 provides the minimum effective dose (in mg/kg) required to produce a statistically significant decrease in 5HIAA concentration relative to control (generally a 15-20% decrease) for both oral and subcutaneous methods of administration.

[2] = po, p.o., read-out: Minimum Effective Dose (mg/kg) p.o., for a statistically significant decrease in 5HIAA concentration relative to control
[3] = sc, s.c., read-out: Minimum Effective Dose (mg/kg) s.c., for a statistically significant decrease in 5HIAA concentration relative to control

Row | Structure (SMILES) | IC50 (5-HT1A receptor) [nM] | IC50 (5-HT1D receptor) [nM] | minimal effective dose [1, 2] [mg/kg] | minimal effective dose [1, 3] [mg/kg]
1 | CCCN(CCC)[C@H]1Cc2c[nH]c3ccc(-c4nc(-c5ccccc5)no4)c(c23)C1 [Example 30, (-)(4R)-6-(3-phenyl-1,2,4-oxadiazol-5-yl)-4-(di-n-propylamino)-1,3,4,5-tetrahydrobenz-[cd]indole] | 7.1 | – | – | –
2 | CCCN(CCC)[C@H]1Cc2c[nH]c3ccc(-c4cccnc4)c(c23)C1 [Example 33, (-)(4R)-6-(3-pyridyl)-4-(di-n-propylamino)-1,3,4,5-tetrahydrobenz[cd]indol] | 0.87 | 29.4 | > 10 | 0.3
3 | CCCN(CCC)[C@H]1Cc2c[nH]c3ccc(-c4nnc(-c5ccccc5)o4)c(c23)C1 [Example 35, (-)(4R)-6-(5-phenyl-1,3,4-oxadiazol-2-yl)-4-(di-n-propylamino)-1,3,4,5-tetrahydrobenz[cd]indole] | 19 | – | – | > 1

The next lines start with results.

Row | IC50 (5-HT1A receptor) [nM] | IC50 (5-HT1D receptor) [nM] | Structure (SMILES) | minimal effective dose [1, 2] [mg/kg] | minimal effective dose [1, 3] [mg/kg]
4 | 0.53 | 74.4 | CCCN(CCC)[C@H]1Cc2c[nH]c3ccc(-c4cnco4)c(c23)C1 [Example 32, (-)(4R)-6-(5-oxazolyl)-4-(di-n-propylamino)-1,3,4,5-tetrahydrobenz[cd]indole] | – | –
5 | 0.61 | 18.6 | CCCN(CCC)[C@@H]1Cc2c[nH]c3ccc(-c4ccon4)c(c23)C1 [Example 24, (+)(4S)-6-(3-isoxazoly)-4-(di-n-propylamino)-1,3,4,5-tetrahydrobenz[cd]indole] | – | –
6 | 0.75 | 577 | CCCN(CCC)[C@H]1Cc2c[nH]c3ccc(-c4nnco4)c(c23)C1 [Example 34, (4R)-6-[2-(1,3,4-oxadiazolyl)]-4-(di-n-propylamino)-1,3,4,5-tetrahydrobenz[cd]indole] | 10 | 0.1
7 | 0.1 | 46.4 | CCCN(CCC)[C@H]1Cc2c[nH]c3ccc(-c4ccno4)c(c23)C1 [Example 26, (-)(4R)-6-(5-isoxazolyl)-4-(di-n-propylamino)-1,3,4,5-tetrahydrobenz[cd]indole] | – | –
8 | 2.77 | 280 | CCCN(CCC)[C@H]1Cc2c[nH]c3ccc(-c4ncco4)c(c23)C1 [Example 31, (-)(4R)-6-(2-oxazolyl)-4-(di-n-propylamino)-1,3,4,5-tetrahydrobenz[cd]indole] | 1 | 1
